Test results from PubChem BioAssay (NCI).
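Cultured in 96-well plates, cells were exposed to test compound for 48 hours across five concentrations. GI50 = concentration required for 50% inhibition of growth. TGI marks complete inhibition of growth.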

Tests used:
Assay in all cases: NCI tumour cell line growth inhibition, 48 h; in the data active = GI50 below about 0.43 µM; inactive = the rest
[1] = system: SF-295 CNS
[2] = system: HL-60(TB) leukemia
[3] = system: HOP-62 NSCLC
[4] = system: UACC-62 melanoma
[5] = system: SK-MEL-2 melanoma
[6] = system: SNB-19 CNS
[7] = system: HCT-15 colon
[8] = system: KM12 colon
[9] = system: RPMI-8226 leukemia
[10] = system: MCF7 breast
[11] = system: SK-OV-3 ovarian
[12] = system: COLO 205 colon
[13] = system: BT-549 breast
[14] = system: MDA-MB-468 breast
[15] = system: NCI-H226 lung
[16] = system: SN12C renal
[17] = system: CCRF-CEM leukemia
[18] = system: SF-539 CNS
[19] = system: MALME-3M melanoma
[20] = system: ACHN renal
[21] = system: MOLT-4 leukemia
[22] = system: EKVX NSCLC
[23] = system: NCI-H460 lung
[24] = system: SNB-75 CNS
[25] = system: SK-MEL-28 melanoma
[26] = system: OVCAR-5 ovarian
[27] = system: HCC-2998 colon
[28] = system: MDA-MB-435
[29] = system: SW-620 colon
[30] = system: IGROV1 ovarian
[31] = system: K-562 leukemia
[32] = system: HOP-92 NSCLC
[33] = system: HCT-116 colon
[34] = system: HT29 colon
[35] = system: A549 NSCLC
[36] = system: SF-268 CNS
[37] = system: UACC-257 melanoma
[38] = system: U251 CNS
[39] = system: RXF 393 renal
[40] = system: PC-3 prostate
[41] = system: M14 melanoma
[42] = system: OVCAR-4 ovarian
[43] = system: LOX IMVI melanoma
[44] = system: HS 578T breast
[45] = system: CAKI-1 renal
[46] = system: 786-0 renal
[47] = system: MDA-MB-231 breast
[48] = system: A498 renal
[49] = system: TK-10 renal
[50] = system: T-47D breast
[51] = system: OVCAR-8 ovarian
[52] = system: SK-MEL-5 melanoma
[53] = system: NCI-H522 lung
[54] = system: UO-31 renal
[55] = system: DU-145 prostate
[56] = system: NCI-H23 lung
[57] = system: SR leukemia
[58] = system: OVCAR-3 ovarian

O=C(/C=C/c1ccco1)c1nc2ccccc2n1Cc1ccc(Br)cc1
26.9 µM: TGI [14]
39.7 µM: TGI [51]
> 100 µM: TGI [2] | TGI [9] | TGI [10] | TGI [11] | TGI [17] | TGI [21] | TGI [22] | TGI [24] | TGI [31] | TGI [34] | TGI [35] | TGI [36] | TGI [40] | TGI [42] | TGI [44] | TGI [45] | TGI [49] | TGI [50] | TGI [55] | TGI [57]
23.2 µM: TGI [7]
28 µM: TGI [52]
28.8 µM: TGI [27]
22.1 µM: TGI [39]
inactive: GI50 [1] 16.7 µM | GI50 [2] 12.7 µM | GI50 [3] 19.7 µM | GI50 [4] 10.8 µM | GI50 [5] 16.3 µM | GI50 [6] 14.4 µM | GI50 [7] 6.96 µM | GI50 [8] 12.5 µM | GI50 [9] 15.8 µM | GI50 [10] 2.9 µM | GI50 [11] 34.5 µM | GI50 [12] 17.6 µM | GI50 [13] 13.8 µM | GI50 [14] 7.31 µM | GI50 [15] 19.3 µM | GI50 [16] 19.9 µM | GI50 [17] 12.3 µM | GI50 [18] 17.8 µM | GI50 [19] 16 µM | GI50 [20] 22 µM | GI50 [21] 6.57 µM | GI50 [22] 26.2 µM | GI50 [23] 15.2 µM | GI50 [24] 13 µM | GI50 [25] 15.6 µM | GI50 [26] 17.9 µM | GI50 [27] 14.9 µM | GI50 [28] 15 µM | GI50 [29] 12.1 µM | GI50 [30] 15.6 µM | GI50 [31] 10.6 µM | GI50 [32] 5.77 µM | GI50 [33] 15 µM | GI50 [34] 31.1 µM | GI50 [35] 21.2 µM | GI50 [36] 27.2 µM | GI50 [37] 17.4 µM | GI50 [38] 12 µM | GI50 [39] 9.57 µM | GI50 [40] 23.9 µM | GI50 [41] 18.9 µM | GI50 [42] 23.6 µM | GI50 [43] 12.2 µM | GI50 [44] 30.4 µM | GI50 [45] 14 µM | GI50 [46] 21.3 µM | GI50 [47] 14 µM | GI50 [48] 28.7 µM | GI50 [49] 32.8 µM | GI50 [50] 6.12 µM | GI50 [51] 16.6 µM | GI50 [52] 14.1 µM | GI50 [53] 15.6 µM | GI50 [54] 11 µM | GI50 [55] 21 µM | GI50 [56] 13.7 µM | GI50 [57] 9.23 µM | GI50 [58] 8.02 µM
34.1 µM: TGI [12]
26.8 µM: TGI [38]
26.4 µM: TGI [54]
52.5 µM: TGI [16]
69.1 µM: TGI [20]
53 µM: TGI [15]
48.4 µM: TGI [29]
34.7 µM: TGI [6]
34.3 µM: TGI [8]
49.2 µM: TGI [3]
61.7 µM: TGI [33]
38.1 µM: TGI [23] | TGI [26]
38.9 µM: TGI [53]
32.1 µM: TGI [25]
42.3 µM: TGI [56]
65.3 µM: TGI [48]
68.4 µM: TGI [37]
27.3 µM: TGI [43]
35 µM: TGI [18]
35.7 µM: TGI [5] | TGI [13]
33.9 µM: TGI [19]
63.7 µM: TGI [30]
76.4 µM: TGI [46]
30.4 µM: TGI [58]
36.9 µM: TGI [28]
34.6 µM: TGI [47]
38.3 µM: TGI [41]
26.2 µM: TGI [4]
33.5 µM: TGI [32]
42.1 µM: TGI [1]
